Laboratory results published in patent US9604982B2, “P2X7 modulators” (Janssen Pharmaceutica NV, priority 2013, dated 2017).
Like-named read-outs stand apart in the source and are kept apart here.

Columns and labels:
P2X7 [1] = target: T1, P2X7 (Homo sapiens (Human), UniProt Q99572); assay: Radioligand binding, human P2X7-1321N1 cell membranes, tracer tritiated A-804598; conditions: Table 3 (additional runs)
Experimental: (§1) P2X7 Antagonism in Recombinant Human P2X7 Cells or Recombinant Rat P2X7 Cells: (a) Ca^2+ Flux and (b) Radioligand Binding
On the day of the experiment, cell membrane preparations were made according to standard published methods. […] The compound can be prepared as described in the literature. […] The assay was terminated by filtration (GF/B filters pre-soaked with 0.3% PEI) and washed with washing buffer (Tris-HCl 50 mM). The IC50 generated in the binding assay was corrected for tracer concentration and affinity of the tracer to derive at the affinity (K) of the test compounds. […] Data are analyzed and graphed on Graphpad Prism 5.

P2X7 [2] = target: T1, P2X7; assay: P2X7 antagonism in human peripheral blood mononuclear cells (PBMCs), IL-1β release after LPS + Bz-ATP (ELISA); type: cell-based; conditions: 0.5 mM Bz-ATP; for remaining activity at 10 µM: read-out: PBMC 10 μM (% control); for PBMC 10 μM (% control): Table 3 (additional runs)
Experimental: Human blood was collected using a blood donor program. […] Cells were incubated for an additional 1.5 hours. […] Data are analyzed and graphed on Graphpad Prism 5. […] The IC50 for each compound is then uploaded into 3DX.

P2X7 [3] = target: T1, P2X7; assay: Ca2+ flux (FLIPR) in 1321N1 cells expressing recombinant human P2X7 channel; type: cell-based; conditions: Table 3 (additional runs); 250 μM BzATP
Experimental: as §1
(§2) (a) Ca^2+ flux: 1321N1 cells expressing the recombinant human or rat P2X7 channel was cultured in HyQ DME/(HyClone/Dulbecco's Modified Eagle Medium) high glucose supplemented with 10% Fetal Bovine Serum (FBS) and appropriate selection marker. Cells were seeded at a density of 25000 cells/well (96-well clear bottom black walled plates) in 100 μl volume/well. On the day of the experiment, cell plates were washed with assay buffer, containing (in mM): 130 NaCl, 2 KCl, 1 CaCl2, 1 MgCl2, 10 HEPES, 5 glucose; pH 7.40 and 300 mOs. After the wash, cells were loaded with the Calcium-4 dye (Molecular Device) and incubated in the dark for 60 minutes. Test compounds were prepared at 250× the test concentration in neat DMSO. Intermediate 96-well compound plates were prepared by transferring 1.2 μL of the compound into 300 μL of assay buffer. A further 3× dilution occurred when transferring 50 μL/well of the compound plate to 100 μL/well in the cell plate. Cells were incubated with test compounds and dye for 30 minutes. […] The fluorescence change was measured 180 seconds after adding the agonist.

[4] = target: recombinant rat P2X7 channel (Rattus norvegicus (Rat), UniProt Q64663); assay: Ca2+ flux (FLIPR) in 1321N1 cells expressing recombinant rat P2X7 channel; type: cell-based; conditions: Table 3 (additional runs); 250 μM BzATP
Experimental: as §1, §2

[5] = P2X7, Table 3 (additional runs), 10 μM compound

Sequence of recombinant rat P2X7 channel (Q64663 whole entry): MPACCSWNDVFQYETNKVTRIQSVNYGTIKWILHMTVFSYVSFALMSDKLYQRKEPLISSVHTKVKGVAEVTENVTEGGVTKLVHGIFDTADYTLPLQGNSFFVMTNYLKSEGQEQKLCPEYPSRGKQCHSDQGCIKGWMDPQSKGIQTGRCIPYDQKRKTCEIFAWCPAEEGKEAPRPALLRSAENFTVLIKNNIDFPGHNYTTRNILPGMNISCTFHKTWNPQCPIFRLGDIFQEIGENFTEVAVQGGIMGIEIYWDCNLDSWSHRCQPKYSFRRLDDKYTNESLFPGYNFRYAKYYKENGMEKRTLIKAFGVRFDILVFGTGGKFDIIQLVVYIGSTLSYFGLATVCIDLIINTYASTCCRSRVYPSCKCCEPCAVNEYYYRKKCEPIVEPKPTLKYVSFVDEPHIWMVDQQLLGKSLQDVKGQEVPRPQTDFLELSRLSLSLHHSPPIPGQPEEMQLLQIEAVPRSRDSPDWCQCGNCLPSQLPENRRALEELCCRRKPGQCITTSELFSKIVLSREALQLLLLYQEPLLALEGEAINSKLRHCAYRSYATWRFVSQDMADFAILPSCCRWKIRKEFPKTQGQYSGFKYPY
T1 sequence (Q99572 whole entry): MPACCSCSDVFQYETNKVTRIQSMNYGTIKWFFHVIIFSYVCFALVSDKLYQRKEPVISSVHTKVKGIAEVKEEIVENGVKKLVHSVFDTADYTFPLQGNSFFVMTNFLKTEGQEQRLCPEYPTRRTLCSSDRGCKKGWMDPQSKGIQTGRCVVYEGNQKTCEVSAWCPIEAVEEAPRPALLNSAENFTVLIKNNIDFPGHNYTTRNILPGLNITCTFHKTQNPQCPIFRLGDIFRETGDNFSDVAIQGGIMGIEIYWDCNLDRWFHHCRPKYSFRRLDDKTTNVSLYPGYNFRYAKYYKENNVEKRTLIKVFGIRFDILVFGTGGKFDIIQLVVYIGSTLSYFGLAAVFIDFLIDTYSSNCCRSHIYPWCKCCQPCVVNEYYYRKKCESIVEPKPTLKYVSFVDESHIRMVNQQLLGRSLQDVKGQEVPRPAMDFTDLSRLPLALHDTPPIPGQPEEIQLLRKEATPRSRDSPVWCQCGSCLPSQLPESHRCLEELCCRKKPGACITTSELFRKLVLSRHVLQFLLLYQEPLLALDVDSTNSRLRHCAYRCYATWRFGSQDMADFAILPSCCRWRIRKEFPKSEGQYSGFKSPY

Compound | remaining activity at 10 µM (P2X7 [2]; P2X7, Table 2, 10 μM compound) | PBMC 10 μM (% control) (P2X7 [2]; 10 μM compound) | IC50 [4] | remaining activity at 10 µM (P2X7 [2]; [5]) | further results
Cc1nc2c(c(-c3ccn[nH]3)n1)C[C@H](C)N(C(=O)c1ccc(Cl)cc1F)C2 (single isomer, unassigned) [Example 89, (S*)-(4-chloro-2-fluorophenyl)(2,6-dimethyl-4-(1H-pyrazol-5-yl)-5,6-dihydropyrido[3,4-d]pyrimidin-7(8H)-yl)methanone] | – | – | – | – | Ki (P2X7 [1]): 7.7 nM
C[C@@H]1c2ncnc(-c3ccn[nH]3)c2CCN1C(=O)c1ccc(F)c(Cl)c1Cl (single isomer, unassigned) [Example 119, (R*)-(2,3-dichloro-4-fluorophenyl)(8-methyl-4-(1H-pyrazol-5-yl)-5,6-dihydropyrido[3,4-d]pyrimidin-7(8H)-yl)methanone] | -1.5% | −1.5 % control | – | – | –
C[C@H]1c2ncnc(-c3ccn[nH]3)c2CCN1C(=O)c1ccc(F)c(Cl)c1Cl (single isomer, unassigned) [Example 120, (S*)-(2,3-dichloro-4-fluorophenyl)(8-methyl-4-(1H-pyrazol-5-yl)-5,6-dihydropyrido[3,4-d]pyrimidin-7(8H)-yl)methanone] | 2.9% | 2.9 % control | – | – | –
C[C@@H]1c2ncnc(-c3ccn[nH]3)c2CCN1C(=O)c1ccc(Cl)c(F)c1Cl (single isomer, unassigned) [Example 122, (R*)-(2,4-dichloro-3-fluorophenyl)(8-methyl-4-(1H-pyrazol-5-yl)-5,6-dihydropyrido[3,4-d]pyrimidin-7(8H)-yl)methanone] | 4.1% | 4.1 % control | – | – | –
C[C@H]1c2ncnc(-c3ccn[nH]3)c2CCN1C(=O)c1ccc(Cl)c(F)c1Cl (single isomer, unassigned) [Example 123, (S*)-(2,4-dichloro-3-fluorophenyl)(8-methyl-4-(1H-pyrazol-5-yl)-5,6-dihydropyrido[3,4-d]pyrimidin-7(8H)-yl)methanone] | 13.3% | – | – | – | –
Cc1nc2c(c(-c3ccn[nH]3)n1)C[C@@H](C)N(C(=O)c1ccc(Cl)c(F)c1Cl)C2 [Example 71, (R)-(2,4-dichloro-3-fluorophenyl)(2,6-dimethyl-4-(1H-pyrazol-5-yl)-5,6-dihydropyrido[3,4-d]pyrimidin-7(8H)-yl)methanone] | -4.1% | −4.1 % control | – | – | –
Cc1nc2c(c(-c3ccn[nH]3)n1)C[C@H](C)N(C(=O)c1ccc(Cl)c(F)c1Cl)C2 [Example 72, (S)-(2,4-dichloro-3-fluorophenyl)(2,6-dimethyl-4-(1H-pyrazol-5-yl)-5,6-dihydropyrido[3,4-d]pyrimidin-7(8H)-yl)methanone] | -2.6% | −2.6 % control | – | – | –
Cc1nc2c(c(-c3ccn[nH]3)n1)CC(C)N(C(=O)c1cccc(OC(F)(F)F)c1)C2 (centres unmarked) [Example 140, (2,6-dimethyl-4-(1H-pyrazol-5-yl)-5,6-dihydropyrido[3,4-d]pyrimidin-7(8H)-yl)(3-(trifluoromethoxy)phenyl)methanone] | – | – | 47300 nM | 52.5% | IC50 (P2X7 [3]): > 10000 nM

Continued, in another order:

remaining activity at 10 µM (P2X7 [2]; P2X7, Table 2, 10 μM compound) | PBMC 10 μM (% control) (P2X7 [2]; 10 μM compound) | IC50 [4] | remaining activity at 10 µM (P2X7 [2]; [5]) | Compound | further results
18.6% | – | – | – | Cc1nc2c(c(-c3ccn(CCF)n3)n1)C[C@@H](C)N(C(=O)c1cccc(C(F)(F)F)c1Cl)C2 (single isomer, unassigned) [Example 124, (R*)-(2-chloro-3-(trifluoromethyl)phenyl)(4-(1-(2-fluoroethyl)-1H-pyrazol-3-yl)-2,6-dimethyl-5,6-dihydropyrido[3,4-d]pyrimidin-7(8H)-yl)methanone] | –
38.2% | – | – | – | COCCn1ccc(-c2nc(C)nc3c2C[C@H](C)N(C(=O)c2cccc(C(F)(F)F)c2Cl)C3)n1 (single isomer, unassigned) [Example 127, (S*)-(2-chloro-3-(trifluoromethyl)phenyl)(4-(1-(2-methoxyethyl)-1H-pyrazol-3-yl)-2,6-dimethyl-5,6-dihydropyrido[3,4-d]pyrimidin-7(8H)-yl)methanone] | –
7.3% | 7.3 % control | – | – | COCCn1ccc(-c2nc(C)nc3c2C[C@@H](C)N(C(=O)c2cccc(C(F)(F)F)c2Cl)C3)n1 (single isomer, unassigned) [Example 128, (R*)-(2-chloro-3-(trifluoromethyl)phenyl)(4-(1-(2-methoxyethyl)-1H-pyrazol-3-yl)-2,6-dimethyl-5,6-dihydropyrido[3,4-d]pyrimidin-7(8H)-yl)methanone] | –
– | – | 12400 nM | – | Cc1nc2c(c(-c3ccn[nH]3)n1)C[C@@H](C)N(C(=O)c1cccc(OC(F)(F)F)c1)C2 (single isomer, unassigned) [Example 141, (R*)-(2,6-dimethyl-4-(1H-pyrazol-5-yl)-5,6-dihydropyrido[3,4-d]pyrimidin-7(8H)-yl)(3-(trifluoromethoxy)phenyl)methanone] | IC50 (P2X7 [3]): 9000 nM
– | – | – | 73.9% | Cc1nc2c(c(-c3ccn[nH]3)n1)C[C@H](C)N(C(=O)c1cccc(OC(F)(F)F)c1)C2 (single isomer, unassigned) [Example 142, (S*)-(2,6-dimethyl-4-(1H-pyrazol-5-yl)-5,6-dihydropyrido[3,4-d]pyrimidin-7(8H)-yl)(3-(trifluoromethoxy)phenyl)methanone] | –
– | – | 200 nM | – | Cc1nc2c(c(-c3ccn[nH]3)n1)C[C@@H](C)N(C(=O)c1cccc(F)c1Cl)C2 (single isomer, unassigned) [Example 144, (R*)-(2-chloro-3-fluorophenyl)(2,6-dimethyl-4-(1H-pyrazol-5-yl)-5,6-dihydropyrido[3,4-d]pyrimidin-7(8H)-yl)methanone] | –
– | – | – | 67.4% | Cc1nc2c(c(-c3ccn[nH]3)n1)C[C@H](C)N(C(=O)c1cccc(F)c1Cl)C2 (single isomer, unassigned) [Example 145, (S*)-(2-chloro-3-fluorophenyl)(2,6-dimethyl-4-(1H-pyrazol-5-yl)-5,6-dihydropyrido[3,4-d]pyrimidin-7(8H)-yl)methanone] | –
– | – | 1460 nM | 2% | Cc1nc2c(c(-c3ccn[nH]3)n1)CC(C)N(C(=O)c1cccc(OC(F)(F)F)c1F)C2 (centres unmarked) [Example 139, (2,6-dimethyl-4-(1H-pyrazol-5-yl)-5,6-dihydropyrido[3,4-d]pyrimidin-7(8H)-yl)(2-fluoro-3-(trifluoromethoxy)phenyl)methanone] | –
– | – | 52.2 nM | 11.9% | Cc1nc2c(c(-c3ccn[nH]3)n1)CC(C)N(C(=O)c1cccc(F)c1Cl)C2 (centres unmarked) [Example 143, (2-chloro-3-fluorophenyl)(2,6-dimethyl-4-(1H-pyrazol-5-yl)-5,6-dihydropyrido[3,4-d]pyrimidin-7(8H)-yl)methanone] | –
– | – | > 10000 nM | -0.8% | COc1cccc(C(=O)N2Cc3nc(C)nc(-c4ccn[nH]4)c3CC2C)c1C (centres unmarked) [Example 146, (2,6-dimethyl-4-(1H-pyrazol-5-yl)-5,6-dihydropyrido[3,4-d]pyrimidin-7(8H)-yl)(3-methoxy-2-methylphenyl)methanone] | IC50 (P2X7 [3]): 1060 nM
– | – | – | 110% | COc1cncc(C(=O)N2Cc3nc(C)nc(-c4ccn[nH]4)c3CC2C)c1 (centres unmarked) [Example 147, (2,6-dimethyl-4-(1H-pyrazol-5-yl)-5,6-dihydropyrido[3,4-d]pyrimidin-7(8H)-yl)(5-methoxypyridin-3-yl)methanone] | –
